From patent publication US10294202B2, “Pyrrolidinones as herbicides” (FMC Corporation, priority 2013, dated 2019)
Read-outs that look alike come from different tables or passages of the source.

What was measured:
barnyardgrass = assay: Test A pre-/postemergence herbicide test; format: in vivo, Echinochloa crus-galli; details: for pest or weed control at 125 g/ha / pest or weed control at 500 g/ha / pest or weed control at 1000 g/ha: Echinochloa crus-galli, 240 h, read-out: Plant response rating, Barnyardgrass; for pest or weed control at 1000 g/ha: 1000 g ai/ha
Outline: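 Both application timings used compounds in a non-phytotoxic solvent plus surfactant. Pre-emergence: soil sprayed directly after seeding into loam/sand. Post-emergence: foliage of 2–10 cm seedlings (1–2 leaves) sprayed. Injury rated ~10 days later, 0–100.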

soybean = assay: Test C pre-/postemergence herbicide test; format: in vivo, Glycine max
Text: (§1) Seeds of plant species selected from blackgrass (Alopecurus myosuroides), ryegrass, Italian (Italian ryegrass, Lolium multiflorum), wheat (winter wheat, Triticum aestivum), galium (catchweed bedstraw, Galium aparine), corn (Zea mays), crabgrass, large (large crabgrass, Digitaria sanguinalis), foxtail, giant (giant foxtail, Setaria faberii), johnsongrass (Sorghum halepense), lambsquarters (Chenopodium album), morningglory (Ipomoea coccinea), nutsedge, yellow (yellow nutsedge, Cyperus esculentus), pigweed (Amaranthus retroflexus), ragweed (common ragweed, Ambrosia elatior), soybean (Glycine max), barnyardgrass (Echinochloa crus-galli), oilseed rape (Brassica napus), waterhemp (common waterhemp, Amaranthus rudis), kochia (Kochia scoparia), oat, wild (wild oat, Avena fatua), surinam grass (Brachiaria decumbens), foxtail, green (green foxtail, Setaria viridis), goosegrass (Eleusine indica), bromegrass, downy (downy bromegrass, Bromus tectorum), nightshade (eastern black nightshade, Solanum ptycanthum), cocklebur (common cocklebur, Xanthium strumarium), cupgrass, woolly (woolly cupgrass, Eriochloa villosa), bermudagrass (Cynodon dactylon), sunflower, (common oilseed sunflower, Helianthus annuus), Russian thistle (Salsola kali) and velvetleaf (Abutilon theophrasti) were planted into a blend of loam soil and sand and treated preemergence with test chemicals formulated in a non-phytotoxic solvent mixture which included a surfactant. At the same time, plants selected from these crop and weed species and also barley (winter barley, Hordeum vulgare), […]), chickweed (common chickweed, Stellaria media), deadnettle (henbit deadnettle, Lamium amplexicaule), and canarygrass (littleseed canarygrass, Phalaris minor) were planted in pots containing Redi-Earth® planting medium (Scotts Company, 14111 Scottslawn Road, Marysville, Ohio 43041) comprising spaghnum peat moss, vermiculite, wetting agent and starter nutrients and treated with postemergence applications of test chemicals formulated in the same manner. Plants ranged in height from 2 to 18 cm (1- to 4-leaf stage) for postemergence treatments. Treated plants and controls were maintained in a greenhouse for 13 to 15 days, after which time all species were compared to controls and visually evaluated. Plant response ratings, summarized in Table C, are based on a scale of 0 to 100 where 0 is no effect and 100 is complete control. A dash (-) response means no test result.

foxtail, giant = assay: Test C pre-/postemergence herbicide test; format: in vivo, Setaria faberii
Text: as §1

oilseed rape = assay: Test C pre-/postemergence herbicide test; format: in vivo, Brassica napus
Text: as §1

waterhemp = assay: Test C pre-/postemergence herbicide test; format: in vivo, Amaranthus rudis
Text: as §1

galium = assay: Test A postemergence herbicide test; format: in vivo, Galium aparine
Outline: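 Ratings compare treated with untreated plants roughly 10 days after a postemergence application made at the one- to two-leaf stage. Scoring uses 0–100, where 0 means no effect and 100 complete control.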

[1] = Postemergence, 125 g ai/ha, 0 to 100 scale, 0 no effect, 100 complete control
[2] = Postemergence, 500 g ai/ha, 0 to 100 scale (0 no effect, 100 complete control)
[3] = Preemergence, 125 g ai/ha, visual rating on 0 to 100 scale (0 no effect, 100 complete control)
[4] = preemergence, 500 g ai/ha, 0 to 100 scale (0 no effect, 100 complete control)
[5] = Preemergence, 62 g ai/ha, scale 0 to 100
[6] = Preemergence, 125 g ai/ha, scale 0 to 100 (0 no effect, 100 complete control)
[7] = Preemergence, 31 g ai/ha, scale 0 to 100 (0 no effect, 100 complete control)
[8] = Preemergence, 250 g ai/ha, scale 0 to 100 (0 no effect, 100 complete control)
[9] = Postemergence, 31 g ai/ha, scale 0 (no effect) to 100 (complete control)
[10] = Postemergence, 62 g ai/ha, scale 0 to 100 (0 no effect, 100 complete control)
[11] = Postemergence, 125 g ai/ha, scale 0 to 100 (0 no effect, 100 complete control)
[12] = Postemergence, 250 g ai/ha, scale 0 to 100 (0 no effect, 100 complete control)
[13] = Preemergence, 31 g ai/ha, scale 0 to 100, 0 is no effect and 100 is complete control
[14] = post-emergence, Postemergence, 125 g ai/ha, 0 to 100 scale, 0 no effect, 100 complete control
[15] = post-emergence, Postemergence, 500 g ai/ha, 0 to 100 scale (0 no effect, 100 complete control)
[16] = pre-emergence, preemergence, 500 g ai/ha, 0 to 100 scale (0 no effect, 100 complete control)

O=C1NCC(c2ccc(F)c(F)c2)C1C(=O)Nc1ccccc1C(F)(F)F (racemic) [Compound 6]
Plant response rating, Barnyardgrass (barnyardgrass; [1]): 40
Plant response rating, Barnyardgrass (barnyardgrass; [2]): 80
Barnyardgrass plant response rating (barnyardgrass; [3]): 50
Plant response rating, Barnyardgrass (barnyardgrass; [4]): 80

O=C1NCC(c2ccc(Cl)c(Cl)c2)C1C(=O)Nc1ccccc1F (racemic) [Compound 14]
Plant response rating, Soybean (soybean; [5]): 0
Plant response rating, Soybean (soybean; [6]): 0
Plant response rating, Barnyardgrass (barnyardgrass; [1]): 60
Plant response rating, Barnyardgrass (barnyardgrass; [2]): 80
Barnyardgrass plant response rating (barnyardgrass; [3]): 80
Plant response rating, Barnyardgrass (barnyardgrass; [4]): 90
Plant response rating, Foxtail, Giant (foxtail, giant; [5]): 85
Plant response rating, Foxtail, Giant (foxtail, giant; [6]): 90
Foxtail, Giant plant response rating (foxtail, giant; [7]): 85
Plant response rating, Foxtail, Giant (foxtail, giant; [8]): 95

O=C1NCC(c2ccc(F)c(F)c2)C1C(=O)Nc1cccc(F)c1F (racemic) [Compound 101]
Plant response rating, Soybean (soybean; [9]): 0
Plant response rating, Soybean (soybean; [10]): 0
Plant response rating, Soybean (soybean; [11]): 5
Plant response rating, Soybean (soybean; [12]): 5
Soybean plant response rating (soybean; [13]): 0
Plant response rating, Soybean (soybean; [5]): 0
Plant response rating, Soybean (soybean; [6]): 0
Plant response rating (scale of 0 to 100), Soybean (soybean; Preemergence, 250 g ai/ha): 10
Plant response rating, Barnyardgrass (barnyardgrass; [1]): 80
Plant response rating, Barnyardgrass (barnyardgrass; [2]): 90
Barnyardgrass plant response rating (barnyardgrass; [3]): 90
Plant response rating, Barnyardgrass (barnyardgrass; [4]): 90
Plant response rating, Foxtail, Giant (foxtail, giant; [9]): 0
Plant response rating, Foxtail, Giant (foxtail, giant; [10]): 20
Plant response rating, Foxtail, Giant (foxtail, giant; [11]): 75
Plant response rating, Foxtail, Giant (foxtail, giant; [12]): 90
Foxtail, Giant plant response rating (foxtail, giant; [13]): 95
Plant response rating, Foxtail, Giant (foxtail, giant; [5]): 95
Plant response rating, Foxtail, Giant (foxtail, giant; [6]): 98
Plant response rating (scale of 0 to 100), Foxtail, Giant (foxtail, giant; Preemergence, 250 g ai/ha): 98
Plant response rating, Oilseed Rape (oilseed rape; [9]): 5
Plant response rating, Oilseed Rape (oilseed rape; [10]): 10
Plant response rating, Oilseed Rape (oilseed rape; [11]): 50
Plant response rating, Oilseed Rape (oilseed rape; [12]): 35
Oilseed Rape plant response rating (oilseed rape; [13]): 0
Plant response rating, Oilseed Rape (oilseed rape; [5]): 35
Plant response rating, Oilseed Rape (oilseed rape; [6]): 80
Plant response rating (scale of 0 to 100), Oilseed Rape (oilseed rape; Preemergence, 250 g ai/ha): 80
Plant response rating, Waterhemp (waterhemp; [9]): 0
Plant response rating, Waterhemp (waterhemp; [10]): 5
Plant response rating, Waterhemp (waterhemp; [11]): 20
Plant response rating, Waterhemp (waterhemp; [12]): 35
Waterhemp plant response rating (waterhemp; [13]): 50
Plant response rating, Waterhemp (waterhemp; [5]): 70
Plant response rating, Waterhemp (waterhemp; [6]): 50
Plant response rating (scale of 0 to 100), Waterhemp (waterhemp; Preemergence, 250 g ai/ha): 85

O=C1NCC(c2cccc(C(F)F)c2)C1C(=O)Nc1ccccc1F (racemic) [Compound 210]
Plant response rating, Barnyardgrass (barnyardgrass; 125 g ai/ha, visual rating, 0 to 100 scale, 0 no effect, 100 complete control, approximately 10 days, preemergence): 60
Plant response rating, Barnyardgrass (barnyardgrass; Postemergence, 125 g ai/ha, 0 to 100 scale, 0 is no effect, 100 is complete control): 80
Barnyardgrass plant response rating (0 to 100 scale, 0 is no effect, 100 is complete control) (barnyardgrass; Postemergence, 500 g ai/ha): 90
Plant response rating, Barnyardgrass (barnyardgrass; preemergence, 500 g ai/ha, 0 to 100 scale, 0 is no effect and 100 is complete control): 90
Plant response rating, Galium (galium; 125 g ai/ha, 0 to 100 scale, 0 is no effect, 100 is complete control): 30
Galium plant response rating (0 to 100 scale, 0 is no effect, 100 is complete control) (galium; 500 g ai/ha): 60

O=C1NCCC1C(=O)N(c1ccc(F)c(F)c1)c1ccccc1F (stereo not drawn) [Compound 5, N-(3,4-difluorophenyl)-N-(2-fluorophenyl)-2-oxo-3-pyrrolidinecarboxamide]
Plant response rating, Soybean (soybean; [5]): 0
Plant response rating, Soybean (soybean; [6]): 0
pest or weed control at 125 g/ha (barnyardgrass; [14]): 60%
pest or weed control at 500 g/ha (barnyardgrass; [15]): 90%
pest or weed control at 500 g/ha (barnyardgrass; [16]): 90%
Barnyardgrass plant response rating (barnyardgrass; [3]): 70
Plant response rating, Foxtail, Giant (foxtail, giant; [5]): 100
Plant response rating, Foxtail, Giant (foxtail, giant; [6]): 100
Foxtail, Giant plant response rating (foxtail, giant; [7]): 95
Plant response rating, Foxtail, Giant (foxtail, giant; [8]): 100

O=C1NCC(c2ccc(F)c(F)c2)C1C(=O)Nc1cccc(F)c1F (stereo not drawn) [Compound 17, N-(2,3-difluorophenyl)-4-(3,4-difluorophenyl)-2-oxo-3-pyrrolidinecarboxamide]
Plant response rating, Soybean (soybean; [9]): 0
Plant response rating, Soybean (soybean; [10]): 0
Plant response rating, Soybean (soybean; [11]): 0
Plant response rating, Soybean (soybean; [12]): 0
Plant response rating, Soybean (soybean; [5]): 0
Plant response rating, Soybean (soybean; [6]): 0
pest or weed control at 1000 g/ha (barnyardgrass; post-emergence, Postemergence, 0 to 100 scale (0 no effect, 100 complete control)): 90%
pest or weed control at 1000 g/ha (barnyardgrass; pre-emergence, Preemergence, visual rating on 0 to 100 scale (0 no effect, 100 complete control), approx. 10 days): 90%
Plant response rating, Foxtail, Giant (foxtail, giant; [9]): 0
Plant response rating, Foxtail, Giant (foxtail, giant; [10]): 0
Plant response rating, Foxtail, Giant (foxtail, giant; [11]): 0
Plant response rating, Foxtail, Giant (foxtail, giant; [12]): 10
Plant response rating, Foxtail, Giant (foxtail, giant; [5]): 95
Plant response rating, Foxtail, Giant (foxtail, giant; [6]): 100
Foxtail, Giant plant response rating (foxtail, giant; [7]): 90
Plant response rating, Foxtail, Giant (foxtail, giant; [8]): 100

O=C1NCC(Br)(c2ccccc2)C1C(=O)Nc1ccccc1F (stereo not drawn) [Compound 92, 4-bromo-N-(2-fluorophenyl)-2-oxo-4-phenyl-3-pyrrolidinecarboxamide]
pest or weed control at 125 g/ha (barnyardgrass; [14]): 20%
pest or weed control at 500 g/ha (barnyardgrass; [15]): 70%
pest or weed control at 500 g/ha (barnyardgrass; [16]): 90%
Barnyardgrass plant response rating (barnyardgrass; [3]): 60

O=C1NCC(c2ccccc2)C1(Br)C(=O)Nc1ccccc1F (stereo not drawn) [Compound 93, 3-bromo-N-(2-fluorophenyl)-2-oxo-4-phenyl-3-pyrrolidinecarboxamide]
pest or weed control at 125 g/ha (barnyardgrass; [14]): 10%
pest or weed control at 500 g/ha (barnyardgrass; [15]): 60%
pest or weed control at 500 g/ha (barnyardgrass; [16]): 90%
Barnyardgrass plant response rating (barnyardgrass; [3]): 50
